Assay results taken from the supplement of paper PMC10307832.

Experiments:
Experiment in all cases: relative viability (nuclei count vs DMSO), 5 days (fraction); higher = more cells survive
Tipifarnib + Trametinib = compound: Cn1cncc1[C@@](N)(c1ccc(Cl)cc1)c1ccc2c(c1)c(-c1cccc(Cl)c1)cc(=O)n2C [Tipifarnib] + CC(=O)Nc1cccc(-n2c(=O)n(C3CC3)c(=O)c3c(Nc4ccc(I)cc4F)n(C)c(=O)c(C)c32)c1 [Trametinib] (partner 0.02 µM)
Summary of the method: (§1)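 Lung cancer cell lines were seeded in 1536-well plates and dosed by pin tool the next day, with either a single drug or a fixed anchor-drug dose combined with five library-drug doses (not always all listed) spaced in √10 steps. Five days later, one step fixed the cells and stained their nuclei (final 0.05% Triton X-100, 1% formaldehyde, 1 ug/ml Hoechst), and nuclei were counted on 4× images. Relative viability is the nuclei count in treated wells divided by the count in vehicle wells, and each value is the median of duplicate plates.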

Tipifarnib + Bortezomib = compound: Cn1cncc1[C@@](N)(c1ccc(Cl)cc1)c1ccc2c(c1)c(-c1cccc(Cl)c1)cc(=O)n2C [Tipifarnib] + CC(C)C[C@H](NC(=O)[C@H](Cc1ccccc1)NC(=O)c1cnccn1)B(O)O [Bortezomib] (partner 0.002 µM)
Summary of the method: as §1

Tipifarnib + Pictilisib = compound: Cn1cncc1[C@@](N)(c1ccc(Cl)cc1)c1ccc2c(c1)c(-c1cccc(Cl)c1)cc(=O)n2C [Tipifarnib] + CS(=O)(=O)N1CCN(Cc2cc3nc(-c4cccc5[nH]ncc45)nc(N4CCOCC4)c3s2)CC1 [Pictilisib] (partner 1 µM)
Summary of the method: as §1

Tipifarnib + Olaparib = compound: Cn1cncc1[C@@](N)(c1ccc(Cl)cc1)c1ccc2c(c1)c(-c1cccc(Cl)c1)cc(=O)n2C [Tipifarnib] + O=C(c1cc(Cc2n[nH]c(=O)c3ccccc23)ccc1F)N1CCN(C(=O)C2CC2)CC1 [Olaparib] (partner 8 µM)
Summary of the method: as §1

Cell Line	relative viability (Tipifarnib + Trametinib; first compound 0.01 µM)	relative viability (Tipifarnib + Trametinib; first compound 0.03162 µM)	relative viability (Tipifarnib + Trametinib; first compound 0.1 µM)	relative viability (Tipifarnib + Trametinib; first compound 0.3162 µM)	relative viability (Tipifarnib + Trametinib; first compound 1 µM)	relative viability (Tipifarnib + Bortezomib; first compound 0.01 µM)	relative viability (Tipifarnib + Bortezomib; first compound 0.03162 µM)	relative viability (Tipifarnib + Bortezomib; first compound 0.1 µM)	relative viability (Tipifarnib + Bortezomib; first compound 0.3162 µM)	relative viability (Tipifarnib + Bortezomib; first compound 1 µM)	relative viability (Tipifarnib + Pictilisib; first compound 0.01 µM)	relative viability (Tipifarnib + Pictilisib; first compound 0.03162 µM)	relative viability (Tipifarnib + Pictilisib; first compound 0.1 µM)	relative viability (Tipifarnib + Pictilisib; first compound 0.3162 µM)	relative viability (Tipifarnib + Pictilisib; first compound 1 µM)	relative viability (Tipifarnib + Olaparib; first compound 0.01 µM)	relative viability (Tipifarnib + Olaparib; first compound 0.03162 µM)	relative viability (Tipifarnib + Olaparib; first compound 0.1 µM)	relative viability (Tipifarnib + Olaparib; first compound 0.3162 µM)	relative viability (Tipifarnib + Olaparib; first compound 1 µM)
NCI-H2023	0.46	0.373	0.403	0.228	0.234	1.27	0.757	0.45	0.453	0.156	0.238	0.212	0.203	0.169	0.159	0.489	0.36	0.373	0.298	0.343
NCI-H2085	0.58	0.603	0.44	0.408	0.366	1.15	0.729	0.695	0.601	0.72	0.513	0.478	0.446	0.541	0.43	0.823	0.758	0.613	0.513	0.7
NCI-H2087	0.157	0.221	0.235	0.145	0.14	0.705	0.418	0.375	0.276	0.39	0.796	0.682	0.587	0.427	0.385	0.538	0.499	0.341	0.281	0.275
NCI-H2126	0.585	0.496	0.528	0.515	0.482	1.05	1.07	1.13	1.05	0.669	0.491	0.492	0.518	0.478	0.391	0.927	0.885	0.844	0.843	0.879
NCI-H2228	0.542	0.378	0.385	0.303	0.177	1.2	0.615	0.727	0.577	0.404	0.369	0.388	0.325	0.202	0.243	0.84	0.523	0.471	0.386	0.478
NCI-H2347	0.308	0.283	0.269	0.261	0.293	0.897	0.469	0.751	0.698	0.738	0.613	0.478	0.658	0.648	0.404	0.59	0.46	0.563	0.473	0.472
NCI-H2405	0.7	0.518	0.487	0.489	0.582	0.983	0.909	0.985	0.923	0.61	0.406	0.412	0.351	0.405	0.404	0.88	0.899	0.903	0.801	0.838
NCI-H3122	0.244	0.215	0.213	0.211	0.185	0.967	0.976	0.986	0.833	0.832	0.6	0.489	0.442	0.347	0.27	0.685	0.681	0.482	0.422	0.415
PC-3 [JPC-3]	0.726	0.61	0.531	0.494	0.478	0.873	0.629	0.698	0.609	0.427	0.811	0.651	0.651	0.44	0.508	1.19	0.978	0.981	0.775	0.654
PC-14	0.579	0.357	0.447	0.2	0.334	1	0.873	0.555	0.453	0.464	0.656	0.59	0.251	0.169	0.173	0.278	0.206	0.279	0.176	0.176
RERF-LC-KJ	0.828	0.961	0.776	0.652	0.646	1.1	1.1	0.85	0.694	0.717	0.551	0.501	0.561	0.347	0.328	0.993	0.898	0.864	0.718	0.699
SK-LU-1	0.572	0.483	0.442	0.384	0.392	1.12	0.508	0.626	0.614	0.36	0.574	0.568	0.424	0.378	0.299	0.527	0.419	0.525	0.395	0.292
SW 1573	0.487	0.354	0.362	0.255	0.25	1.13	0.752	0.691	0.45	0.49	0.492	0.426	0.397	0.289	0.236	0.428	0.305	0.307	0.233	0.27
UMC-11	0.653	0.569	0.471	0.377	0.301	0.667	0.498	0.465	0.447	0.242	0.676	0.511	0.495	0.445	0.31	0.432	0.356	0.357	0.346	0.339
